From ChEMBL document CHEMBL3351616, “Synthesis and evaluation of novel benzophenone-thiazole derivatives as potent VEGF-A inhibitors” (Eur J Med Chem, 2014)
The source made the active and inactive calls. No cut-off for these calls is given here.

What was measured:
[1] = Cytotoxicity against mouse EAC cells after 48 hrs by LDH release assay; type: functional, cell-based; settings: Ehrlich
[2] = Cytotoxicity against mouse EAC cells after 48 hrs by MTT method; type: functional, cell-based; settings: Ehrlich
[3] = Cytotoxicity against mouse DLA cells after 48 hrs by MTT method; type: functional, cell-based
[4] = Cytotoxicity against mouse DLA cells after 48 hrs by trypan blue dye exclusion method; type: functional, cell-based
[5] = Cytotoxicity against mouse EAC cells after 48 hrs by trypan blue dye exclusion method; type: functional, cell-based; settings: Ehrlich
[6] = Cytotoxicity against mouse DLA cells after 48 hrs by LDH release assay; type: functional, cell-based
Mus musculus [7] = test: Toxicity in Swiss albino mouse assessed as change in creatinine level at 50 mg/kg, ip consecutively for 10 days (reference value: 0.46 +/- 1.8 mg/dl); type: organism-based; design: dose 50 mg/kg, route intraperitoneal; settings: in vivo, 240 h
Mus musculus [8] = test: Toxicity in Swiss albino mouse assessed as change in RBC at 50 mg/kg, ip consecutively for 10 days (reference value: 4.75 +/- 2.1 x 10^6 /uL); type: organism-based; design: dose 50 mg/kg, route intraperitoneal; settings: in vivo, 240 h
[9] = Antitumor activity against mouse EAC cells allografted in mouse assessed as increase in lifespan at 50 mg/kg, ip as 3 doses on day 4,6 and 8 after tumor onset measured on day 10 (reference value: 10 days); type: functional, Ehrlich; settings: route intraperitoneal
Ehrlich [10] = test: Antitumor activity against mouse EAC cells allografted in mouse assessed as zone of avascularization in peritoneum at 50 mg/kg, ip as 3 doses on day 4,6 and 8 after tumor onset measured on day 10; type: functional, organism-based; design: dose 50 mg/kg
Mus musculus [11] = test: Toxicity in Swiss albino mouse assessed as change in urea level at 50 mg/kg, ip consecutively for 10 days (reference value: 51 +/- 2.6 mg/dl); type: organism-based; design: dose 50 mg/kg, route intraperitoneal; settings: in vivo, 240 h
Ehrlich [12] = test: Reduction in VEGF-A protein secretion in culture media of mouse EAC cells by ELISA; type: functional, cell-based
Ehrlich [13] = test: Antitumor activity against mouse EAC cells allografted in mouse assessed as decrease in reduction in tumor volume at 50 mg/kg, ip as 3 doses on day 4,6 and 8 after tumor onset measured on day 10; type: functional, organism-based; design: dose 50 mg/kg
[14] = Antitumor activity against mouse EAC cells allografted in mouse assessed as reduction in VEGF-A protein secretion in tumor cells at 50 mg/kg, ip as 3 doses on day 4,6 and 8 after tumor onset by ELISA relative to control; type: functional, Ehrlich; settings: route intraperitoneal
Mus musculus [15] = test: Toxicity in Swiss albino mouse assessed as change in alkaline phosphatase level at 50 mg/kg, ip consecutively for 10 days (reference value: 124.98 +/- 1.2 IU/L); type: organism-based; design: dose 50 mg/kg, route intraperitoneal; settings: in vivo, 240 h
Ehrlich [16] = test: Antitumor activity against mouse EAC cells allografted in mouse assessed as decrease in ascites fluid secretion at 50 mg/kg, ip as 3 doses on day 4,6 and 8 after tumor onset measured on day 10; type: functional, organism-based; design: dose 50 mg/kg
Mus musculus [17] = test: Toxicity in Swiss albino mouse assessed as change in WBC at 50 mg/kg, ip consecutively for 10 days (reference value: […]); type: organism-based; design: dose 50 mg/kg, route intraperitoneal; settings: in vivo, 240 h
Ehrlich [18] = test: Antitumor activity against mouse EAC cells allografted in mouse assessed as reduction in VEGF-A mRNA expression in tumor cells at 50 mg/kg, ip as 3 doses on day 4,6 and 8 after tumor onset by RT-PCR analysis; type: functional, organism-based; design: dose 50 mg/kg
Ehrlich [19] = test: Antitumor activity against mouse EAC cells allografted in mouse assessed as decrease in reduction in cell count at 50 mg/kg, ip as 3 doses on day 4,6 and 8 after tumor onset measured on day 10; type: functional, organism-based; design: dose 50 mg/kg
Ehrlich [20] = test: Antitumor activity against mouse EAC cells allografted in mouse assessed as reduction in VEGF-A protein expression in tumor cells at 50 mg/kg, ip as 3 doses on day 4,6 and 8 after tumor onset by immunoblot method relative to control; type: functional, organism-based; design: dose 50 mg/kg

With `COc1ccc(-c2csc(NC(=O)COc3c(C)cc(C(=O)c4ccccc4)cc3C)n2)cc1` the IC50 [1] was 41.5 µM, the IC50 [2] was 41.2 µM and the IC50 [3] was 39.4 µM. It also gave an IC50 [4] of 38.4 µM, an IC50 [5] of 40.6 µM and an IC50 [6] of 40.1 µM.
In the case of `COc1ccc(-c2csc(NC(=O)COc3ccc(C(=O)c4cccc(Br)c4)cc3C)n2)cc1`, the IC50 [1] is reported as 40.6 µM, the IC50 [2] is reported as 39.2 µM and the IC50 [3] is reported as 36.6 µM. It also gave an IC50 [4] of 35.4 µM, an IC50 [5] of 38.1 µM and an IC50 [6] of 37.1 µM.
Work on `Cc1cc(C(=O)c2ccccc2)ccc1OCC(=O)Nc1nc(-c2ccccc2)cs1` yielded an IC50 [1] of 24.5 µM, an IC50 [2] of 24 µM and an IC50 [3] of 22.3 µM. The IC50 [4] was 21.5 µM, the IC50 [5] was 22.3 µM and the IC50 [6] was 23 µM.
`COc1ccc(-c2csc(NC(=O)COc3ccc(C(=O)c4ccc(F)cc4)cc3C)n2)cc1` showed an Activity (Mus musculus [7]) of 0.44 mg/dL, an IC50 [1] of 5.8 µM and an Activity (Mus musculus [8]) of 5.13 ×10⁶ /uL. The Survival [9] was 34 days, the Activity (Ehrlich [10]) was “Active” and the Activity (Mus musculus [11]) was 48 mg/dL. The Activity (Ehrlich [12]) was “Dose-dependent effect”, the Activity (Ehrlich [13]) was “Dose-dependent effect” and the “fold change (FC)” value [14] was 5. For the same compound, the Activity (Mus musculus [15]) was 129 IU/L, the IC50 [2] was 5.4 µM and the IC50 [3] was 5.4 µM. The IC50 [4] was 5 µM, the Activity (Ehrlich [16]) was “Dose-dependent effect” and the Activity (Mus musculus [17]) was 3.89 ×10⁶ /uL. For the same compound, the IC50 [5] was 5.2 µM, the Activity (Ehrlich [18]) was “Active” and the Activity (Ehrlich [19]) was “Dose-dependent effect”. The IC50 [6] was 5.5 µM and the Activity (Ehrlich [20]) was “Active”.
With `Cc1cc(C(=O)c2ccccc2C)ccc1OCC(=O)Nc1nc(-c2ccccc2)cs1` the IC50 [1] was 26.4 µM, the IC50 [2] was 25.8 µM and the IC50 [3] was 23.1 µM. For the same compound, the IC50 [4] was 22.2 µM, the IC50 [5] was 24.3 µM and the IC50 [6] was 23.7 µM.
Compound `O=c1[nH]cc(F)c(=O)[nH]1` [FLUOROURACIL] has an IC50 [1] of 15.4 µM, an IC50 [3] of 15.6 µM and an IC50 [4] of 15.3 µM. For the same compound, the IC50 [5] was 14.6 µM and the IC50 [6] was 16.8 µM.
In the case of `O=C(COc1ccc(C(=O)c2ccccc2)cc1Br)Nc1nc(-c2ccccc2)cs1`, the IC50 [1] is reported as 46.4 µM, the IC50 [2] is reported as 46 µM and the IC50 [3] is reported as 43.1 µM. It also gave an IC50 [4] of 42 µM, an IC50 [5] of 45.8 µM and an IC50 [6] of 43.5 µM.
With `Cc1cc(C(=O)c2ccccc2)cc(C)c1OCC(=O)Nc1nc(-c2ccccc2)cs1` the IC50 [1] was 23.4 µM, the IC50 [2] was 22.7 µM and the IC50 [3] was 19.4 µM. The IC50 [4] was 19.1 µM, the IC50 [5] was 22.1 µM and the IC50 [6] was 19.9 µM.
`Cc1cc(C(=O)c2ccc(F)cc2)ccc1OCC(=O)Nc1nc(-c2ccccc2)cs1` gave an IC50 [1] of 38.6 µM, an IC50 [2] of 37.4 µM and an IC50 [3] of 33.3 µM. The IC50 [4] was 32.1 µM, the IC50 [5] was 35.2 µM and the IC50 [6] was 34.7 µM.
For `COc1ccc(-c2csc(NC(=O)COc3ccc(C(=O)c4ccc(C)cc4)cc3C)n2)cc1`, the IC50 [1] was 20.9 µM, the IC50 [2] was 20.7 µM and the IC50 [3] was 17.2 µM. For the same compound, the IC50 [4] was 16 µM, the IC50 [5] was 19.4 µM and the IC50 [6] was 18.7 µM.
For `Cc1ccc(C(=O)c2ccc(OCC(=O)Nc3nc(-c4ccccc4)cs3)c(C)c2)cc1`, the IC50 [1] was 30.5 µM, the IC50 [2] was 29.9 µM and the IC50 [3] was 26.4 µM. For the same compound, the IC50 [4] was 25 µM, the IC50 [5] was 28.4 µM and the IC50 [6] was 27.1 µM.
For `Cc1cc(C(=O)c2cccc(Br)c2)ccc1OCC(=O)Nc1nc(-c2ccccc2)cs1`, the IC50 [1] was 25.9 µM, the IC50 [2] was 24.4 µM and the IC50 [3] was 23.8 µM. The IC50 [4] was 21.7 µM, the IC50 [5] was 24.3 µM and the IC50 [6] was 23.6 µM.
`Cc1cc(C(=O)c2ccccc2F)ccc1OCC(=O)Nc1nc(-c2ccccc2)cs1` showed an IC50 [1] of 16.9 µM, an IC50 [2] of 16.7 µM and an IC50 [3] of 14.8 µM. It also gave an IC50 [4] of 13.7 µM, an IC50 [5] of 15.4 µM and an IC50 [6] of 15.6 µM.
Compound `COc1ccc(-c2csc(NC(=O)COc3ccc(C(=O)c4ccccc4)cc3C)n2)cc1` has an IC50 [1] of 28.6 µM, an IC50 [2] of 28.4 µM and an IC50 [3] of 25.7 µM. It also gave an IC50 [4] of 24.2 µM, an IC50 [5] of 27.1 µM and an IC50 [6] of 26.2 µM.
Compound `COc1ccc(-c2csc(NC(=O)COc3ccc(C(=O)c4cccc(F)c4)cc3C)n2)cc1` has an IC50 [1] of 30.9 µM, an IC50 [2] of 30.7 µM and an IC50 [3] of 28.4 µM. For the same compound, the IC50 [4] was 27.8 µM, the IC50 [5] was 29.5 µM and the IC50 [6] was 30.3 µM.
